Data taken from patent publication US20260285875A1, “INHIBITORS OF PARG” (858 Therapeutics, Inc., priority 2023, published 2026).

What follows are compounds tested against T1, cellular PARG (Homo sapiens, UniProt Q86W56) (assay: Nuclear PAR accumulation assay (immunofluorescence high-content imaging, MMS-treated HeLa cells)). Settings: 1 hour compound then MMS 50 μg/mL for an additional hour.
T1 construct: endogenous in cells; host or cells: HeLa
Assay type: cell-based
Outline: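 HeLa cells pretreated with compound for 1 h at 37° C, then given 50 μg/mL MMS for another hour. After methanol fixation, PAR was immunostained with DAPI nuclear counterstain; per-nucleus intensity and percent PAR-positive cells were imaged at 20× (≥1,000 cells/well). IC50 from four-parameter logistic fit.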

T1 sequence (Q86W56 whole entry): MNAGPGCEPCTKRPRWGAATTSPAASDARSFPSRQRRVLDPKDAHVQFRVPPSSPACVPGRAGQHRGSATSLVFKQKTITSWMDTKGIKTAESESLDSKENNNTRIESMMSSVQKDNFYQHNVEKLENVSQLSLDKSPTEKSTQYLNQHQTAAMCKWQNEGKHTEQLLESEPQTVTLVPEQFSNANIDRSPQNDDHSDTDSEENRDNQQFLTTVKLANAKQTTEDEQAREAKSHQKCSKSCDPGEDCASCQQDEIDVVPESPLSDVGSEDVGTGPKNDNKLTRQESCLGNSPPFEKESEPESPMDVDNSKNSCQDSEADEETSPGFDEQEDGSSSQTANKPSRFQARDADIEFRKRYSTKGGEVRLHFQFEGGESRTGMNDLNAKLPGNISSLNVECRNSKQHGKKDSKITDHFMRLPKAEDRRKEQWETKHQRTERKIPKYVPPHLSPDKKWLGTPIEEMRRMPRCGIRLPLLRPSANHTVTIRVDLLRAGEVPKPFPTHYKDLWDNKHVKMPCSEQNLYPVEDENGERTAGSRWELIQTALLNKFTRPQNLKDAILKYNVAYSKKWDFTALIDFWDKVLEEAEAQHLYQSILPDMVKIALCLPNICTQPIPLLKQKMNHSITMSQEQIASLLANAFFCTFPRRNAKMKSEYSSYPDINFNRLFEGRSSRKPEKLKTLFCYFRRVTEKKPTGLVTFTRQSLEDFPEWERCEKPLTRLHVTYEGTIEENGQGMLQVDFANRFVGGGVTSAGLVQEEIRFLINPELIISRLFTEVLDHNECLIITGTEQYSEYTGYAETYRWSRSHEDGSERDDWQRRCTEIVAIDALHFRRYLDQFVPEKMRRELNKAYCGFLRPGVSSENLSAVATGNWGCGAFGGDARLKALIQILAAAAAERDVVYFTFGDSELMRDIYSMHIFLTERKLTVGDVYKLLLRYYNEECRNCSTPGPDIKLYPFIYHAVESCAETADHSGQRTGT

IC50	SMILES
< 100 nM	CCN1C(=O)c2cc(S(=O)(=O)NC3(C)CC3)ccc2N2C1=NC[C@H]2C#Cc1c(F)cnn1C [Example 245, (R)-4-ethyl-1-((4-fluoro-1-methyl-1H-pyrazol-5-yl)ethynyl)-N-(1-methylcyclopropyl)-5-oxo-1,2,4,5-tetrahydroimidazo[1,2-a]quinazoline-7-sulfonamide]
100 to 1000 nM	CC(=O)N1CCN(c2cc(S(=O)(=O)NC3(C)CC3)cc3c2N2C(=NC[C@H]2C)N(Cc2cnn(C)c2)C3=O)CC1 [Example 292, (R)-9-(4-acetylpiperazin-1-yl)-1-methyl-4-((1-methyl-1H-pyrazol-4-yl)methyl)-N-(1-methylcyclopropyl)-5-oxo-1,2,4,5-tetrahydroimidazo[1,2-a]quinazoline-7-sulfonamide]
< 100 nM	[2H]C([2H])(c1cnn(C)c1)N1C(=O)c2cc(S(=O)(=O)NC3(C)CC3)c(F)cc2N2C1=N[C@H]1CCC[C@H]12 [Example 212, (7aS,10aR)-2-fluoro-6-((1-methyl-1H-pyrazol-4-yl)methyl-d2)-N-(1-methylcyclopropyl)-5-oxo-6,7a,8,9,10,10a-hexahydro-5H-cyclopenta[4,5]imidazo[1,2-a]quinazoline-3-sulfonamide]
< 100 nM	CCN1C(=O)c2cc(S(=O)(=O)NC3(C)CC3)ccc2N2C1=NC[C@H]2C#Cc1ccnn1C [Example 198, (R)-4-ethyl-1-((1-methyl-1H-pyrazol-5-yl)ethynyl)-N-(1-methylcyclopropyl)-5-oxo-1,2,4,5-tetrahydroimidazo[1,2-a]quinazoline-7-sulfonamide]
< 100 nM	CN1C(=O)c2cc(S(=O)(=O)NC3(C)CC3)ccc2N2C1=NC[C@H]2C#Cc1ccc2cn(C)nc2c1 [Example 147, (R)-4-methyl-1-((2-methyl-2H-indazol-6-yl)ethynyl)-N-(1-methylcyclopropyl)-5-oxo-1,2,4,5-tetrahydroimidazo[1,2-a]quinazoline-7-sulfonamide]
100 to 1000 nM	Cn1cc(CN2C(=O)c3cc(S(=O)(=O)NC4(C)CC4)ccc3N3C2=N[C@H]2COCC[C@H]23)cn1 [Example 158, (7aR,11aR)-6-((1-methyl-1H-pyrazol-4-yl)methyl)-N-(1-methylcyclopropyl)-5-oxo-5,6,7a,10,11,11a-hexahydro-8H-pyrano[3′,4′:4,5]imidazo[1,2-a]quinazoline-3-sulfonamide]
< 100 nM	Cc1cccc(C#CC2CN=C3N(C)C(=O)c4cc(S(=O)(=O)NC5(C)CC5)ccc4N32)n1 (stereo not shown) [Example 225, 4-methyl-N-(1-methylcyclopropyl)-1-((6-methylpyridin-2-yl)ethynyl)-5-oxo-1,2,4,5-tetrahydroimidazo[1,2-a]quinazoline-7-sulfonamide]
< 100 nM	CCn1nccc1C#C[C@@H]1CN=C2N(Cc3cnn(C)c3)C(=O)c3cc(S(=O)(=O)NC4(C)CC4)ccc3N21 [Example 207, (R)-1-((1-ethyl-1H-pyrazol-5-yl)ethynyl)-4-((1-methyl-1H-pyrazol-4-yl)methyl)-N-(1-methylcyclopropyl)-5-oxo-1,2,4,5-tetrahydroimidazo[1,2-a]quinazoline-7-sulfonamide]
< 100 nM	C#C[C@@H]1[C@H](C)N=C2N(Cc3cnn(C)c3)C(=O)c3cc(S(=O)(=O)NC4(C)CC4)ccc3N21 [Example 173, (1R,2S)-1-ethynyl-2-methyl-4-((1-methyl-1H-pyrazol-4-yl)methyl)-N-(1-methylcyclopropyl)-5-oxo-1,2,4,5-tetrahydroimidazo[1,2-a]quinazoline-7-sulfonamide]
< 100 nM	Cn1cc(CN2C(=O)c3cc(S(=O)(=O)NC4(C)CC4)ccc3N3C2=NC[C@H]3C#Cc2c(F)cnn2C)cn1 [Example 217, (R)-1-((4-fluoro-1-methyl-1H-pyrazol-5-yl)ethynyl)-4-((1-methyl-1H-pyrazol-4-yl)methyl)-N-(1-methylcyclopropyl)-5-oxo-1,2,4,5-tetrahydroimidazo[1,2-a]quinazoline-7-sulfonamide]
< 100 nM	CCN1C(=O)c2cc(S(=O)(=O)NC3(C)CC3)ccc2N2C1=NC[C@H]2C#Cc1nn(C)nc1C [Example 257, (R)-1-((2,5-dimethyl-2H-1,2,3-triazol-4-yl)ethynyl)-4-ethyl-N-(1-methylcyclopropyl)-5-oxo-1,2,4,5-tetrahydroimidazo[1,2-a]quinazoline-7-sulfonamide]
1000 to 10000 nM	CN(C)C(=O)N1CC[C@@H]2N=C3N(Cc4cnn(C)c4)C(=O)c4cc(S(=O)(=O)NC5(C)CC5)ccc4N3[C@@H]2C1 [Example 161, (7aS,11aR)-N,N-dimethyl-6-((1-methyl-1H-pyrazol-4-yl)methyl)-3-(N-(1-methylcyclopropyl)sulfamoyl)-5-oxo-6,7a,8,9,11,1la-hexahydropyrido[4′,3′:4,5]imidazo[1,2-a]quinazoline-10(5H)-carboxamide]
< 100 nM	[2H]C([2H])(c1cnn(C)c1)N1C(=O)c2cc(S(=O)(=O)NC3(C)CC3)c(F)cc2N2C1=NC[C@H]2C#C [Example 289, (R)-1-ethynyl-8-fluoro-4-((1-methyl-1H-pyrazol-4-yl)methyl-d2)-N-(1-methylcyclopropyl)-5-oxo-1,2,4,5-tetrahydroimidazo[1,2-a]quinazoline-7-sulfonamide]

The remaining lines, values behind:

SMILES	IC50
CCN(CC)CC#C[C@@H]1CN=C2N(Cc3cnn(C)c3)C(=O)c3cc(S(=O)(=O)NC4(C)CC4)ccc3N21 [Example 81, (R)-1-(3-(diethylamino)prop-1-yn-1-yl)-4-((1-methyl-1H-pyrazol-4-yl)methyl)-N-(1-methylcyclopropyl)-5-oxo-1,2,4,5-tetrahydroimidazo[1,2-a]quinazoline-7-sulfonamide]	< 100 nM
C[C@@H]1CN=C2N(Cc3cnn(C)c3)C(=O)c3cc(S(=O)(=O)NC4(C)CC4)cc(N4CCN(C)CC4)c3N21 [Example 10, (R)-1-methyl-4-((1-methyl-1H-pyrazol-4-yl)methyl)-N-(1-methylcyclopropyl)-9-(4-methylpiperazin-1-yl)-5-oxo-1,2,4,5-tetrahy droimidazo[1,2-a]quinazoline-7-sulfonamide]	< 100 nM
[2H]C([2H])(c1cnn(C)c1)N1C(=O)c2cc(S(=O)(=O)NC3(C)CC3)ccc2N2C1=NC[C@H]2CSC [Example 113, (S)-4-((1-methyl-1H-pyrazol-4-yl)methyl-d2)-N-(1-methylcyclopropyl)-1-((methylthio)methyl)-5-oxo-1,2,4,5-tetrahydroimidazo[1,2-a]quinazoline-7-sulfonamide]	< 100 nM
[2H]C([2H])(c1cnn(C)c1)N1C(=O)c2cc(S(=O)(=O)NC3(C)CC3)cc(Br)c2N2C1=NC[C@H]2C#C [Example 98, (R)-9-bromo-1-ethynyl-4-((1-methyl-1H-pyrazol-4-yl)methyl-d2)-N-(1-methylcyclopropyl)-5-oxo-1,2,4,5-tetrahydroimidazo[1,2-a]quinazoline-7-sulfonamide]	< 100 nM
[2H]C([2H])(c1cnn(C)c1)N1C(=O)c2cc(S(=O)(=O)NC3(C)CC3)ccc2N2C1=NC[C@H]2COc1ccccn1 [Example 110, (S)-4-((1-methyl-1H-pyrazol-4-yl)methyl-d2)-N-(1-methylcyclopropyl)-5-oxo-1-((pyridin-2-yloxy)methyl)-1,2,4,5-tetrahydroimidazo[1,2-a]quinazoline-7-sulfonamide]	< 100 nM
Cn1cc(CN2C(=O)c3cc(S(=O)(=O)NC4(C)CC4)cc(-c4ccc(Cl)cc4)c3N3CCN=C23)cn1 [Example 21, 9-(4-chlorophenyl)-4-((1-methyl-1H-pyrazol-4-yl)methyl)-N-(1-methylcyclopropyl)-5-oxo-1,2,4,5-tetrahydroimidazo[1,2-a]quinazoline-7-sulfonamide]	100 to 1000 nM
Cc1ncc([C@@H]2CN=C3N(Cc4cnn(C)c4)C(=O)c4cc(S(=O)(=O)NC5(C)CC5)ccc4N32)s1 [Example 121, (S)-4-((1-methyl-1H-pyrazol-4-yl)methyl)-N-(1-methylcyclopropyl)-1-(2-methylthiazol-5-yl)-5-oxo-1,2,4,5-tetrahydroimidazo[1,2-a]quinazoline-7-sulfonamide]	< 100 nM
CC1(NS(=O)(=O)c2ccc3c(c2)N(c2nnc(C(F)F)s2)C2=NOCCN23)CC1 [Example 86, 10-(5-(difluoromethyl)-1,3,4-thiadiazol-2-yl)-N-(1-methylcyclopropyl)-3,4-dihydro-10H-benzo[4,5]imidazo[2,1-c][1,2,4]oxadiazine-8-sulfonamide]	< 100 nM
Cn1cc(CN2C(=O)c3cc(S(=O)(=O)NC4(C)CC4)ccc3N3C2=NC[C@H]3C#Cc2ncn(C)n2)cn1 [Example 66, (R)-1-((1-methyl-1H-1,2,4-triazol-3-yl)ethynyl)-4-((1-methyl-1H-pyrazol-4-yl)methyl)-N-(1-methylcyclopropyl)-5-oxo-1,2,4,5-tetrahydroimidazo[1,2-a]quinazoline-7-sulfonamide]	< 100 nM
Cn1cc(CN2C(=O)c3cc(S(=O)(=O)NC4(C)CC4)ccc3N3C2=NCC3COc2ccc(Cl)cc2)cn1 (stereo not shown) [Example 143, 1-((4-chlorophenoxy)methyl)-4-((1-methyl-1H-pyrazol-4-yl)methyl)-N-(1-methylcyclopropyl)-5-oxo-1,2,4,5-tetrahydroimidazo[1,2-a]quinazoline-7-sulfonamide]	100 to 1000 nM
Cn1cc(CN2C(=O)c3cc(S(=O)(=O)NC4(C)CC4)ccc3N3C2=NC[C@H]3COc2ccc(F)cc2)cn1 [Example 29, (S)-1-((4-fluorophenoxy)methyl)-4-((1-methyl-1H-pyrazol-4-yl)methyl)-N-(1-methylcyclopropyl)-5-oxo-1,2,4,5-tetrahydroimidazo[1,2-a]quinazoline-7-sulfonamide]	< 100 nM
Cn1cc(CN2C(=O)c3cc(S(=O)(=O)NC4(C)CC4)ccc3N3C2=NC[C@H]3CC(F)(F)F)cn1 [Example 39, (R)-4-((1-methyl-1H-pyrazol-4-yl)methyl)-N-(1-methylcyclopropyl)-5-oxo-1-(2,2,2-trifluoroethyl)-1,2,4,5-tetrahydroimidazo[1,2-a]quinazoline-7-sulfonamide]	< 100 nM
